The nature of data set [1]: in vivo. The settings on record: Sprague-Dawley, rat, iv, 1 mg/kg.
Data set [2] in a line: in vivo. The following applies: Sprague-Dawley, rat, iv, 1 mg/kg. The source holds these as a separate data set.
Data set [3] is described as follows: in vivo. The settings on record: Sprague-Dawley, rat, iv, 1 mg/kg. The source holds these as a separate data set.
Data set [4] in a line: in vivo. The settings on record: Sprague-Dawley, rat, po, 5 mg/kg.
The nature of data set [5]: in vivo. The following applies: Sprague-Dawley, rat, po, 5 mg/kg. The source holds these as a separate data set.
A short description of data set [6]: in vivo. The settings on record: Sprague-Dawley, rat, po, 5 mg/kg. The source holds these as a separate data set.
The nature of data set [7]: in vivo. The following applies: Sprague-Dawley, rat, po, 5 mg/kg. The source holds these as a separate data set.
Data set [8] in a line: Oral bioavailability in human in fed state at 560 mg administered daily. The class given is ADME, organism-based. The settings on record: in vivo.
Data set [9] can be described thus: Oral bioavailability in human in fasting state at 560 mg administered daily. The settings on record: in vivo. The class given is ADME, organism-based.
The nature of data set [10]: Cmax in ICR mouse plasma at 14.5 mg/kg, po administered as single dose by LC-MS/MS analysis. The arrangement: dose 14.5 mg/kg, route oral. It is filed as ADME, organism-based.
Data set [11] in a line: Plasma concentration in ICR mouse at 14.5 mg/kg, po administered as single dose measured at 2 hrs by LC-MS/MS analysis. The class given is ADME, organism-based.
A short description of data set [12]: Plasma concentration in ICR mouse at 14.5 mg/kg, po administered as single dose measured at 4 hrs by LC-MS/MS analysis. The class given is ADME, organism-based.
Data set [13] in a line: Plasma concentration in ICR mouse at 2.2 mg/kg, po administered as single dose measured at 0.5 hrs by LC-MS/MS analysis. The class given is ADME, organism-based.
The nature of data set [14]: Plasma concentration in ICR mouse at 4.4 mg/kg, po administered as single dose measured at 0.5 hrs by LC-MS/MS analysis. The class given is ADME, organism-based.
A short description of data set [15]: Plasma concentration in ICR mouse at 8.9 mg/kg, po administered as single dose measured at 0.5 hrs by LC-MS/MS analysis. The class given is ADME, organism-based.
The nature of data set [16]: Plasma concentration in ICR mouse at 17.7 mg/kg, po administered as single dose measured at 0.5 hrs by LC-MS/MS analysis. The class given is ADME, organism-based.
Data set [17] in a line: Plasma concentration in ICR mouse at 0.7 mg/kg, po administered as single dose measured at 0.5 hrs by LC-MS/MS analysis. The class given is ADME, organism-based.
A short description of data set [18]: Plasma concentration in ICR mouse at 1.4 mg/kg, po administered as single dose measured at 0.5 hrs by LC-MS/MS analysis. It is filed as ADME, organism-based.
Data set [19] can be described thus: Plasma concentration in ICR mouse at 2.9 mg/kg, po administered as single dose measured at 0.5 hrs by LC-MS/MS analysis. The class given is ADME, organism-based.
Data set [20] can be described thus: Plasma concentration in ICR mouse at […], po administered as single dose measured at 0.5 hrs by LC-MS/MS analysis. It is filed as ADME, organism-based.

Consider five compounds from ChEMBL document CHEMBL4414549 (J Med Chem, 2019).

`C=CC(=O)Nc1ccccc1C1CCNc2c(C(N)=O)c(-c3ccc(OCC4CC4)cc3)nn21` (stereo not given): the half-life in data set [1] was 24 min. Further, the Vd in data set [2] is 1.01 L/kg. Also, the clearance in data set [3] was determined as 82.3 mL/min/kg. Besides, in [4], the Tmax was determined as 19.8 min. The same compound came in with a Cmax in data set [5] of 202 ng/mL. This compound yielded an AUC in data set [6] of 344 ng·h/mL. Besides, the bioavailability in [7] amounted to 34%.

As for `C=CC(=O)N1CCC[C@@H](n2nc(-c3ccc(Oc4ccccc4)cc3)c3c(N)ncnc32)C1` [IBRUTINIB], the bioavailability was found to be 8.4% in [8] and 3.9% in data set [9].

`C=CC(=O)NCC1CCNc2c(C(N)=O)c(-c3ccc(Oc4ccccc4)cc3)nn21` (stereo not given) gave a half-life in [1] of 12.6 min. For the same compound, the Vd in data set [2] was found to be 1.19 L/kg. For the same compound, in data set [3], the clearance worked out at 93.9 mL/min/kg. Moreover, the Tmax in data set [4] was 19.8 min. Moreover, the highest level in data set [5] (Cmax) was 19.6 ng/mL. Moreover, the AUC in data set [6] was 51.1 ng·h/mL. In addition, the bioavailability in [7] turned out to be 5.7%.

For the compound `C=CC(=O)N1CC(C2CCNc3c(C(N)=O)c(-c4ccc(Oc5ccccc5)cc4)nn32)C1` (stereo not given), the half-life in data set [1] was 15.6 min. In data set [2], this compound gave a Vd of 2.85 L/kg. The same compound displayed a clearance in data set [3] of 169 mL/min/kg. In addition, in data set [4], the Tmax worked out at 140 min. For the same compound, in data set [5], the peak level (Cmax) was 10.4 ng/mL. The compound also displayed an AUC in data set [6] of 50.3 ng·h/mL. This compound showed a bioavailability in [7] of 8.6%.

Consider `C=CC(=O)N1CCC([C@@H]2CCNc3c(C(N)=O)c(-c4ccc(Oc5ccccc5)cc4)nn32)CC1` [ZANUBRUTINIB], for which the Cmax in data set [10] was 4800 nM; in data set [5] it was 235 ng/mL. Also, the concentration at 2 h in [11] is 470 nM. In data set [12], this compound returned a concentration at 4 h of 90 nM. Further, the concentration at 0.5 h in data set [13] was found to be 70 nM; in [14] it was 180 nM; in [15], 350 nM; in [16] it was 500 nM; in [17] it was 40 nM; in [18], 110 nM. Moreover, the figures for the concentration at 0.5 h in data set [19] and in [20] were 320 nM and 590 nM, respectively. This compound displayed a Vd in data set [2] of 2.32 L/kg. Also, the clearance in data set [3] was 76.8 mL/min/kg. For the same compound, the Tmax in [4] was 19.8 min. The AUC in data set [6] was 257 ng·h/mL. In addition, in data set [7], the bioavailability stood at 23.6%.

For orientation: half-life means how long it takes for the measured level to halve. In general, Vd refers to a proportionality between amount in the body and measured concentration, not a real space. A lower Vd goes with confinement near the circulation. The term clearance denotes the volume of plasma or blood freed of the substance per unit of time. By Tmax is commonly meant the time at which the peak concentration occurs. Broadly, the Cmax is the highest concentration seen after dosing. What is called AUC is the area under the concentration-time curve, a measure of exposure. Low values mean less exposure, high ones more exposure. Broadly, the bioavailability is dose-corrected exposure relative to a reference, in per cent. A low value points to little systemic uptake.
